Tests used:
Chlorella fusca (CF) = experiment: Algistatic finish (SM 023) of pure acrylate house paint; type: cell-based; set-up: key to Surface colonization: −: no growth; +: some growth; ++: moderate growth; +++: strong growth
Procedure: (§1) In separate batches, the test concentrations of the active compounds/products were incorporated into the house paint, and the fungicidal and/or algistatic finish was determined using the stated test methods.
(§2) Incorporation and testing were carried out according to the methods SM 022 and SM 023 below.
This laboratory method was employed for determining the resistance of house coatings to colonization by algae. For this method, house coatings on standardized paper are used as test substrate and Chlorella fusca is used as test alga. It is furthermore possible to use pure cultures of other algae species of practical relevance.
The experiments were carried out in Petri dishes on agar nutrient media.
50 g of the material to be finished were, in separate batches, mixed with various concentrations of the algicide to be examined and homogenized for 3-5 min using a basket stirrer.
(§3) Paper carrier materials having the dimensions 90×270 mm (Schleicher & Schüll No. 2589 B/X 24078) were coated with the test material. The paint and/or render samples were coated to a wet-layer thickness of 250 μm by knife coating. […] In the case of renders, the layer thickness depends, as in practice, on the particle size. The coated carrier materials, hereinbelow referred to as test bodies, were subsequently dried in a horizontal position for five days.
[…] The cross section of the container for the watering in the direction of flow was 1000±500 cm^2.
From the pretreated test bodies, three sample bodies having a diameter of 5 cm were punched out and sterilized in a Co^60 source using at least 10 kGy.
Aseptically, the samples were placed onto the algae nutrient media, and the centre of the sample was inoculated with 5 ml of each algae suspension.
The mixture of the algae suspensions was spread on the surface using a Drigalski spatula or an offset sterile glass rod.
During the growth phase at 22±2° C., the coated samples in the Petri dishes were irradiated with light of an intensity of about 1000 Lux (customary fluorescent tubes, type D 67 daylight). A cycle of in each case 12 hours of irradiation and 12 hours of storage in the dark was used.
The colonization of the samples by algae was examined and evaluated after two weeks. Evaluation was carried out visually. The evaluation of the samples was based on the following evaluation scale:
No growth of algae on the test bodies
Formation of an inhibitory zone or growth of algae on the nutrient medium up to the edge of the test bodies
Visible colonization of the test body by algae

Aspergillus niger (AN) = experiment: Fungicidal finish (SM 022) of pure acrylate house paint; type: cell-based; conditions: for Fungicidal finish, colonization rating AN: without stress due to 72 hours leaching (so in the source)
Procedure: as §1, §2
This laboratory method was used to determine the resistance of house coatings to fungal attack. For the method, house coatings on standardized paper were used as test substrate, and Aspergillus niger (ATCC 6275) and Penicillium funiculosum (ATCC 36839) were used as test fungi. The experiments were carried out in Petri dishes on dextrose nutrient medium.
50 g of the material to be finished were, in separate batches, mixed with various concentrations of the fungicide to be examined and homogenized for 3-5 min using a basket stirrer.
as §3, with “depended,” for “depends,”
The test bodies were watered in running tap water of 15±5° C. and a flow rate of 1 l/min for 72 hours and subsequently dried for two days. The cross section of the container for the watering in the direction of flow was 1000±500 cm^2.
From the pretreated test bodies, sample bodies having a diameter of 5 cm were punched out and sterilized in a Co^60 source using at least 10 kGy.
The Sabouraud dextrose agar, which had solidified in the Petri dish, was inoculated with 0.2 ml of spore suspension (10^7 spores/ml) and plated out using a sterile Drigalski spatula or an offset sterile glass rod.
The pretreated sample bodies were then evenly placed onto the inoculated surface of the nutrient medium using a pair of tweezers, making sure that the entire surface of the sample body was in contact with the surface of the nutrient medium. The sample was subsequently incubated at 30±2° C. for three weeks. For other test germs, the incubation temperature had to be adapted to achieve optimum growth.
After one, two and three weeks, the sample bodies were examined for fungal growth. Evaluation was carried out visually or—if this was required to exclude foreign infections—using a magnifying glass. If the extent of the colonization by foreign organisms observed considerably interfered with the evaluation, the experiment could not be evaluated and was repeated. The evaluation of the samples was based on the following evaluation scale:
00—entire plate free from colonization*
0—zone formation (no colonization around the sample)*
(0)—fungal colonization up to the sample*
1—only the sample edge is colonized*
2—the sample is colonized from the edge inwards (less than 25%)
3—the sample surface is colonized by individual colonies (25-75%)
4—the sample surface is colonized extensively (75% and more, but not the entire surface)
5—the sample surface is colonized completely (100%)
*Note: Samples evaluated as 00, 0, (0) and 1 can be referred to as “being effectively finished against fungal growth”.

[1] = without stress due to 72 hours leaching (so in the source), use concentration 0.5%
[2] = without stress due to 72 hours leaching (so in the source), use concentration 1.0%
[3] = without stress due to 72 hours leaching (so in the source), use concentration 2.0%
[4] = without stress due to leaching, use concentration 0.5%
[5] = without stress due to leaching, use concentration 1.0%
[6] = without stress due to leaching, use concentration 2.0%

CC1CN(CN2COC(C)C2)CO1 (stereo not drawn) [Mar 71, 3,3′-methylenebis-(5-methyloxazolidine)]
Algicidal action (in words) (Chlorella fusca (CF); with stress due to leaching): little algicidal action in practice | Inhibitory zone (Chlorella fusca (CF); [1]): 0 mm | Surface colonization (Chlorella fusca (CF); [1]): ++ | Inhibitory zone (Chlorella fusca (CF); [2]): 0 mm | Surface colonization (Chlorella fusca (CF); [2]): ++ | Inhibitory zone (Chlorella fusca (CF); [3]): 0 mm | Surface colonization (Chlorella fusca (CF); [3]): +++ | Inhibitory zone (Chlorella fusca (CF); [4]): 12 mm | Surface colonization (Chlorella fusca (CF); [4]): − | Inhibitory zone (Chlorella fusca (CF); [5]): >18 mm | Surface colonization (Chlorella fusca (CF); [5]): − | Inhibitory zone (Chlorella fusca (CF); [6]): >18 mm | Surface colonization (Chlorella fusca (CF); [6]): − | Algicidal activity (in words) (Chlorella fusca (CF); without stress due to leaching, use concentration from 0.5 to 2% by weight): good algicidal activity | Fungicidal activity (in words), AN (Aspergillus niger (AN); house paint test): no fungicidal activity in practice | Fungicidal finish, colonization rating AN (Aspergillus niger (AN); use conc. 0.5% W/W, 1. week): 5 (the sample surface is colonized completely (100%)) | Fungicidal finish, colonization rating AN (Aspergillus niger (AN); use conc. 0.5% W/W, 2. week): 5 (the sample surface is colonized completely (100%)) | Fungicidal finish, colonization rating AN (Aspergillus niger (AN); use conc. 1.0% W/W, 1. week): 5 (the sample surface is colonized completely (100%)) | Fungicidal finish, colonization rating AN (Aspergillus niger (AN); use conc. 1.0% W/W, 2. week): 5 (the sample surface is colonized completely (100%)) | Fungicidal finish, colonization rating AN (Aspergillus niger (AN); use conc. 2.0% W/W, 1. week): 5 (the sample surface is colonized completely (100%)) | Fungicidal finish, colonization rating AN (Aspergillus niger (AN); use conc. 2.0% W/W, 2. week): 5 (the sample surface is colonized completely (100%))

Source: patent publication US6348483B1, “Use of derivatives of methylene-bis-oxazolidine and compositions obtained thereby” (Air Liquide Sante (International), priority 1998, dated 2002)
